Test results taken from PubChem BioAssay AID2061108 (Research group of Professor Matthew Todd, School of …, 2025).
Active and inactive are the calls of the source. How the calls were made is not given here.

Experiments:
Test in all cases: antibacterial and antifungal growth inhibition panel, profiling panel, Idler compounds, first plate, PMBN-permeabilized strains (AID 2061108)
Set-up in all cases: haemolysis: dose or concentration left out as unconfirmed
[1] = test system: C. albicans NCPF 3281 growth inhibition, 100 uM; details: S. aureus ATCC 9144 growth inhibition; measured here: C. albicans NCPF 3281; at 100 µM; stronger effect = higher value
[2] = test system: E. coli NCTC 12923 + PMBN growth inhibition, 100 uM; details: S. aureus ATCC 9144 growth inhibition; measured here: E. coli plus PMBN; at 100 µM; stronger effect = higher value
[3] = test system: M. avium growth inhibition, 10 uM; details: M. avium growth inhibition, 10 µM
[4] = test system: E. coli NCTC 12923 growth inhibition, 100 uM; details: E. coli NCTC 12923 growth inhibition, 100 µM; stronger effect = higher value
[5] = test system: A. baumannii ATCC 17978 + PMBN growth inhibition, 100 uM; details: A. baumannii plus PMBN growth inhibition, 100 µM; stronger effect = higher value
[6] = test system: S. aureus ATCC 9144 growth inhibition, 100 uM; details: S. aureus ATCC 9144 growth inhibition; at 100 µM; stronger effect = higher value
[7] = test system: red blood cell haemolysis; details: stronger effect = higher value; dose or concentration not given here
[8] = test system: A. baumannii ATCC 17978 growth inhibition, 100 uM; details: S. aureus ATCC 9144 growth inhibition; measured here: A. baumannii ATCC 17978; at 100 µM; stronger effect = higher value
[9] = test system: M. abscessus growth inhibition, 10 uM; details: S. aureus ATCC 9144 growth inhibition; measured here: M. abscessus; at 10 µM

SMILES	inhibition [1] [%]	inhibition [2] [%]	inhibition [3] [%]	inhibition [4] [%]	inhibition [5] [%]	inhibition [6]	haemolysis [7] [%]	inhibition [8] [%]	inhibition [9] [%]
COc1cc2nc(NCCCN(C)C)nc(N3CC(N(C)C)C3)c2cc1OC	-118	2.07	5.58	11.5	29.9	37.5% (inactive)	0.15	17.3	1.59
CC(=O)NCCC(=O)NNC(=O)c1cc(-c2ccccn2)nc2ccccc12	-14.4	-9.76	-0.099	-5.54	4.14	-6.67% (inactive)	0.542	-4.58	-0.278
O=C(Nc1ccc(Oc2ccccc2)cc1)c1ccc(-c2nn[nH]n2)nc1	-10.3	10.6	-0.673	0.676	15.2	15% (inactive)	-0.153	-1.31	-0.682
CCn1c(SCC(=O)N(C)c2ccccc2)nnc1-c1cn(C)nc1OC	8.04	-23.5	-1.26	-41.1	4.29	-11.4% (inactive)	0.564	-2.53	0.00036
CCS(=O)(=O)c1ccc(CNc2nc3ccccc3cc2C#N)s1	-73.7	-0.61	-0.121	-13.4	28.4	22.3% (inactive)	0.247	-4.82	0.173
COC(COc1cncc2nnc(-c3ccc(OC(F)F)cc3)n12)c1ccccc1 (stereo unspecified)	-17.3	-28.1	-0.713	-38.8	-15.5	-22.8% (inactive)	-0.0885	-16.4	-0.536
O=C(CSc1nc(=O)[nH]c2c1CCC2)c1ccc(Cl)cc1	-110	-20	0.488	-22	10.9	-14.2% (inactive)	0.151	0	-0.381
COc1ccc2c(c1)nc(-c1ccc[nH]1)c1[nH]ccc12	101	100	1.82	43.8	101	102%	0.0477	34.2	0.154
COc1ccc(-c2ccc(CNc3ccnc(S(=O)(=O)F)c3)s2)cc1	98.4	14.7	-0.555	5.81	38	24.7%	2.61	8.21	-0.879
Nc1ncc(/C=N/NC(=O)c2ccncc2)cn1	3.92	-2.1	0.0378	-0.946	11.3	19.2% (inactive)	-0.164	-1.43	-0.71
O=C(Nc1nnc2ccccn12)c1ccc2cccc(Cl)c2n1	25.9	-43.8	-0.879	-51.6	-14.2	-41.5% (inactive)	2.79	-14.5	-0.577
COc1cc(OC)cc(C2(NC(=O)c3ccc(N4CCOCC4)cc3)COC2)c1	-72	0.123	-0.0617	0.541	19.4	11.7% (inactive)	-0.148	2.38	-0.558
COc1ccc(/C=C(\C#N)S(=O)(=O)c2ccccc2)cc1OC	-60.8	3.58	-0.352	-0.135	12.6	16.3% (inactive)	2.6	0.595	-0.905
CC(C)c1cc(Nc2nc(N[C@@H](CO)C3CCCCC3)nc3[nH]ncc23)n[nH]1	-64	99.1	0.54	-18.2	57.6	-3.86%	1.61	-4.22	-0.415
